Assay results reported in patent US6555114B1, “Immunodominant human T-cell epitopes of hepatitis C virus” (Innogenetics N.V., priority 1993, dated 2003).

How the values were obtained:
[1] = system: PBMC from 32 patients with chronic HCV; assay: T cell proliferation assay ((3H)-thymidine incorporation, stimulation index) with PBMC of chronic HCV patients; assay type: cell-based, human; conditions: for lymphoproliferative response (LPR) to peptide pools and single peptides: IFN responder, LPR to pools 2 and/or 3
[2] = system: PBMC's from 18 healthy control subjects; assay: T cell proliferation assay with PBMC of healthy control subjects; assay type: cell-based, human; conditions: 17 control subjects, 23 proliferation assays
Method: As controls for the specificity of the lymphoproliferative responses, 18 healthy individuals aged 25-58 years (mean 38.6), 10 males and 8 females were selected. These subjects were negative for HCV antibodies and HCV-RNA.
The medium used for all cell cultures consisted of RPMI 1640 supplemented with 25 mM HEPES, 2 mM L-glutamine, 50 U/ml penicillin and 50 μg/ml streptomycin (all from Gibco Europe, Gent, Belgium), 5×10^−5 M 2-mercaptoethanol (Sigma, St. Louis, Mo.) and 10% heat-inactivated pooled human AB serum. This AB serum was obtained from healthy blood donors with blood group AB^+ and was only used when antibodies to HCV and HCV-RNA were absent. This “complemented” RPMI 1640 medium will hereafter be designated “complete medium”.
PBMC were isolated from heparinized venous blood by isopycnic density centrifugation on Ficoll Hypaque (Lymphoprep, Nyegaard, Denmark) and suspended in complete medium. […] PBMC in 200 μl of complete medium were cultured in 96 well round-bottomed microplates (Falcon Plastics) in the absence (unstimulated controls) or presence of varying concentrations of antigens for 5 days at 37° C. in an atmosphere of 5% CO2 in air. 0.5 μCi (^3H)-thymidine was then added to each well and 16 to 20 h later the cultures were harvested onto glass fiber filters using a multichannel cell harvester (PHD, Cambridge, Mass.) to measure the incorporation of (^3H)-thymidine by liquid scintillation counting in an LKB-Wallac 8100 counter (LKB, Bromma, Sweden). Results are expressed as stimulation index (SI; mean cpm of antigen-stimulated cultures/mean cpm of control cultures). Proliferation was considered positive when stimulation index was >3. In some figures the results are expressed as cpm (mean cpm of antigen-stimulated cultures—mean cpm of control cultures). Standard deviations of the mean cpm of triplicate cultures were consistently below 10%.
To analyze and summarize the results of 135 assays performed in the 32 HCV patients, we have chosen to consider the response of an individual patient to a particular antigen preparation (peptide pools 1 to 9, NS1-5*, NS1-7* or NS3 protein) as significant when it induces SI's 3 in at least half of the assays performed. The results shown in Table 4 have been obtained using this scoring method. […] The start of the Interferon therapy serves as the reference point, week 0. None of the patients responded to all the antigens. PBMC's from 13 of 18 (72%) clinical responders and 12 of 14 (85%) non-responders proliferated in response to at least one antigen preparation. All but one antigen preparation, peptide pool 8, induced a proliferative response in at least one subject. The most frequent responses were to peptide pools 2 and 3. Whereas both interferon-responders and non-responders proliferated equally well to peptide pool 2 (56% and 57%, respectively), non-responders reacted less well to peptide pool 3 (29% or 4 of 14) than responders (44% or 8 of 18). […] Clinical non-responders to interferon therapy also reacted more frequently (57 or 8 of 14) upon stimulation with the NS3 protein than responders (24% or 4 of 17). However, none of these differences in proliferative response rates to peptide pools 3, 5 and 9 or to NS3 protein reached statistical significance ([…] in ^2-test). […] Indeed, 8 of 17 responders recognized one or both peptides while none of the non-responders did so. A summary of the results of all these proliferation assays is provided in FIG. 2, in which the response rates of the HCV patients as well as 18 healthy control subjects towards the 12 antigen preparations. Indeed, to establish the relevance of the proliferative responses observed in HCV patients, PBMC's from 18 healthy control subjects were stimulated with the same antigen preparations. Overall, 27 assays were performed: a single assay in 10 subjects, two in 7 volunteers and 3 in one individual. In 12 control subjects none of the antigens induced a proliferative response. […]

[3] = patient 626, αIFN responder (R), week 14 of αIFN therapy
[4] = patient 627, αIFN non-responder (NR), week 54 of αIFN therapy
[5] = patient 636, αIFN responder (R), week 28 of αIFN therapy
[6] = patient 637, αIFN non-responder (NR), week 45 of αIFN therapy

Row | Sequence | stimulation index (SI), T-cell recognition [1, 3] | stimulation index (SI), T-cell recognition [1, 4] | stimulation index (SI), T-cell recognition [1, 5] | stimulation index (SI), T-cell recognition [1, 6] | number of control subjects that recognized the single peptide [2] | share of control subjects that recognized the single peptide [2] | stimulation index (SI), T-cell recognition ([1]; patient 620, αIFN non-responder (NR), week 20 of αIFN therapy) | lymphoproliferative response (LPR) to peptide pools and single peptides ([1]; patient 639, pools 4 assays, single peptides 2 assays) | LPR in αIFN responders (summary of Table 7) ([1]; both αIFN responders tested) | lymphoproliferative response (LPR) to peptide pools and single peptides ([1]; patient 632, pools 8 assays, single peptides 4 assays) | LPR in αIFN non-responders (summary of Table 7) ([1]; two αIFN non-responders)
1 | LLSPRGSRPSWGPTDPRRRS (hepatitis C virus) [C17] | — (Only SI equal or greater than 3 are shown.) | — (Only SI equal or greater than 3 are shown.) | — (Only SI equal or greater than 3 are shown.) | — (Only SI equal or greater than 3 are shown.) | 2 | 12% |  |  |  |  | 
2 | LLSCLTVPASAYQVRNSTGL [C31] | — (Only SI equal or greater than 3 are shown.) | — (Only SI equal or greater than 3 are shown.) | — (Only SI equal or greater than 3 are shown.) | — (Only SI equal or greater than 3 are shown.) | 1 | 6% | — (Only SI equal or greater than 3 are shown.) | + (significant when it induces SI's 3 in at least half of the assays performed) |  |  | 
3 | KVIDTLTCGFADLMGYIPLV (hepatitis C virus) [C21] | 3.3 | 3.6 | — (Only SI equal or greater than 3 are shown.) | — (Only SI equal or greater than 3 are shown.) | 1 | 6% |  |  | highest LPR | + (significant when it induces SI's 3 in at least half of the assays performed) | high PLR
